The source of these data is patent publication US20190047966A1, “NOVEL COMPOUND AND PHARMACOLOGICALLY ACCEPTABLE SALT THEREOF” (MEIJI SEIKA PHARMA CO., LTD., priority 2016, published 2019).

Structures can show the parent of a compound that is named as a salt.

Experiment [1] deals with T1, human histamine H4 receptor (Homo sapiens, UniProt Q9H3N8).
T1 construct: purchased PerkinElmer Inc; host or cells: CHO-K1
Put plainly: Evaluation of Human H4 Receptor Affinity ([3H]histamine binding). The following applies: inhibition constant Ki, CHO-K1 membrane preparation, read-out: Evaluation of H4 Receptor Affinity. In outline: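 Radioligand displacement: compound competes with 8.2 nM [3H]histamine at recombinant human H4 receptor in CHO-K1 membranes (Tris-HCl 50 mM pH 7.4, EDTA 1.25 mM; 25 °C, 90 min), with filter-bound radioactivity counted. IC50 was converted to Ki via Cheng-Prusoff (Kd 5.7 nM); 1.0 μM histamine set nonspecific binding.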

In experiment [2] the target is human histamine H1 receptor (Homo sapiens, UniProt P35367). The experiment is described as follows: Evaluation of Human H1 Receptor Affinity ([3H]pyrilamine binding). The following applies: inhibition constant Ki, CHO-K1 membrane preparation. Details: purchased PerkinElmer Inc; host or cells: CHO-K1. In outline: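 Ki values are Cheng-Prusoff conversions of IC50 (Kd 1.1 nM) from radioligand displacement of 1.2 nM [3H]pyrilamine, with 1.0 μM pyrilamine defining nonspecific binding.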
Chain of human histamine H1 receptor (P35367 whole entry): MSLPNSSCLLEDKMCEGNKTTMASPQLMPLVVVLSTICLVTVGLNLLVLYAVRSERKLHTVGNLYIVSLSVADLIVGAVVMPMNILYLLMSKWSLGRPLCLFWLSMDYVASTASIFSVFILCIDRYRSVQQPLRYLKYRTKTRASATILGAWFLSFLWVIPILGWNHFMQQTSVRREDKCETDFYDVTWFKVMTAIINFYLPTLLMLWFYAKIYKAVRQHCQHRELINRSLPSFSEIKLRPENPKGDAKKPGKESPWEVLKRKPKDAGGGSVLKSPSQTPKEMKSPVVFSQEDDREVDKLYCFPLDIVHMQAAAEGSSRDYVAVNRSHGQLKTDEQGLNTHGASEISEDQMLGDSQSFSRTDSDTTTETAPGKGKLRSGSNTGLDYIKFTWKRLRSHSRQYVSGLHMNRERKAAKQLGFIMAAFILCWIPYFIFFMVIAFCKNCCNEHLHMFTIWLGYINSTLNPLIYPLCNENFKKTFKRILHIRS

T1 sequence (Q9H3N8 whole entry): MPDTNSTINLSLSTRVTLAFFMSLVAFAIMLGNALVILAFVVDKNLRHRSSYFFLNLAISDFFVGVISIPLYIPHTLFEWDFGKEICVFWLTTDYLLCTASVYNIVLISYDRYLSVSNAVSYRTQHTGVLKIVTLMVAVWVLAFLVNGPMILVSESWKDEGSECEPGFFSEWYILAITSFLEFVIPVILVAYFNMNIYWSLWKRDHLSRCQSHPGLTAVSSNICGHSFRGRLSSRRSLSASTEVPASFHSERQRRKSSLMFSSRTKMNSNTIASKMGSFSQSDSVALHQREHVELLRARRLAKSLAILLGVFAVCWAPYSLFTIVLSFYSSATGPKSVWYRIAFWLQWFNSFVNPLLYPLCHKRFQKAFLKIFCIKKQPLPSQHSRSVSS

As to `Cn1cc(COCCN2CCN(c3nc(N)nc4c3CCc3cc(OCc5ccc(Cl)cc5)ccc3-4)CC2)cc1C(=O)O` [Example 156, 4-((2-(4-(2-amino-8-((4-chlorobenzyl)oxy)-5,6-dihydrobenzo[h]quinazolin-4-yl)piperazin-1-yl)ethoxy)methyl)-1-methyl-1H-pyrrole-2-carboxylic acid hydrochloride], the Ki in experiment [1] and in experiment [2] was below 100 nM in each case.
With `Nc1nc2c(c(N3CCN(CCOC45CCC(C(=O)O)(CC4)CC5)CC3)n1)CCc1cc(OCc3ccc(Cl)cc3)ccc1-2` [Example 157, 4-(2-(4-(2-amino-8-((4-chlorobenzyl)oxy)-5,6-dihydrobenzo[h]quinazolin-4-yl)piperazin-1-yl)ethoxy)bicyclo[2.2.2]octane-1-carboxylic acid hydrochloride], the Ki in experiment [1] and in experiment [2] was below 100 nM each time.
In the case of `CC12CCC(C(=O)O)(CC1OCCN1CCN(c3nc(N)nc4c3CCc3cc(OCc5ccc(Cl)cc5)ccc3-4)CC1)C2(C)C` (stereo not drawn) [Example 158, 3-(2-(4-(2-amino-8-((4-chlorobenzyl)oxy)-5,6-dihydrobenzo[h]quinazolin-4-yl)piperazin-1-yl)ethoxy)-4,7,7-trimethylbicyclo[2.2.1]heptane-1-carboxylic acid hydrochloride], the Ki is 100 to 500 nM in experiment [1] and below 100 nM in experiment [2].
With `CC1(C(=O)O)CCC(OCCN2CCN(c3nc(N)nc4c3CCc3cc(OCc5ccc(Cl)cc5)ccc3-4)CC2)CC1` (stereo not drawn) [Example 161, 4-(2-(4-(2-amino-8-((4-chlorobenzyl)oxy)-5,6-dihydrobenzo[h]quinazolin-4-yl)piperazin-1-yl)ethoxy)-1-methylcyclohexane-1-carboxylic acid], the Ki in experiment [1] and in experiment [2] was below 100 nM in each case.
`CC(C)(C(=O)O)c1ccc(OCCN2CCN(c3nc(N)nc4c3CCc3cc(OCc5ccc(Cl)cc5)ccc3-4)CC2)cc1` [Example 162, 2-(4-(2-(4-(2-amino-8-((4-chlorobenzyl)oxy)-5,6-dihydrobenzo[h]quinazolin-4-yl)piperazin-1-yl)ethoxy)phenyl)-2-methylpropanoic acid]: the Ki in experiment [1] and in experiment [2] was 100 to 500 nM each time.
Turning to `Nc1nc2c(c(N3CCN(CCOCC4(CCC(=O)O)COC4)CC3)n1)CCc1cc(OCc3ccc(Cl)cc3)ccc1-2` [Example 163, 3-(3-((2-(4-(2-amino-8-((4-chlorobenzyl)oxy)-5,6-dihydrobenzo[h]quinazolin-4-yl)piperazin-1-yl)ethoxy)methyl)oxetan-3-yl)propanoic acid], the Ki in experiment [1] and in experiment [2] was below 100 nM throughout.
For the compound `CC1(COCCN2CCN(c3nc(N)nc4c3CCc3cc(OCc5ccc(Cl)cc5)ccc3-4)CC2)CCC(C(=O)O)CC1` (stereo not drawn) [Example 164, cis- or trans-4-((2-(4-(2-amino-8-((4-chlorobenzyl)oxy)-5,6-dihydrobenzo[h]quinazolin-4-yl)piperazin-1-yl)ethoxy)methyl)-4-methylcyclohexane-1-carboxylic acid], the Ki in experiment [1] and in experiment [2] was below 100 nM each time.
Consider `CC1(C(=O)O)CCC(COCCN2CCN(c3nc(N)nc4c3CCc3cc(OCc5ccc(Cl)cc5)ccc3-4)CC2)CC1` (stereo not drawn) [Example 165, trans- or cis-4-((2-(4-(2-amino-8-((4-chlorobenzyl)oxy)-5,6-dihydrobenzo[h]quinazolin-4-yl)piperazin-1-yl)ethoxy)methyl)-1-methylcyclohexane-1-carboxylic acid], for which the Ki in experiment [1] and in experiment [2] was below 100 nM throughout.
Regarding `Nc1nc2c(c(N3CCN(CCOCCOCC4(C(=O)O)COC4)CC3)n1)CCc1cc(OCc3ccc(Cl)cc3)ccc1-2` [Example 168, 3-((2-(2-(4-(2-amino-8-((4-chlorobenzyl)oxy)-5,6-dihydrobenzo[h]quinazolin-4-yl)piperazin-1-yl)ethoxy)ethoxy)methyl)oxetane-3-carboxylic acid], the values for the Ki in experiment [1] and in experiment [2] were 100 to 500 nM and below 100 nM, respectively.
For `Nc1nc2c(c(N3CCN(CCOCC4CC(C(=O)O)C4)CC3)n1)CCc1cc(OCc3ccc(Cl)cc3)ccc1-2` (stereo not drawn) [Example 169, cis- or trans-3-((2-(4-(2-amino-8-((4-chlorobenzyl)oxy)-5,6-dihydrobenzo[h]quinazolin-4-yl)piperazin-1-yl)ethoxy)methyl)cyclobutane-1-carboxylic acid], in that order: 100 to 500 nM and below 100 nM.
The like results for `Nc1nc2c(c(N3CCN(CCOCC4CC(C(=O)O)C4)CC3)n1)CCc1cc(OCc3ccc(Cl)cc3)ccc1-2` (stereo not drawn) [Example 170, trans- or cis-3-((2-(4-(2-amino-8-((4-chlorobenzyl)oxy)-5,6-dihydrobenzo[h]quinazolin-4-yl)piperazin-1-yl)ethoxy)methyl)cyclobutane-1-carboxylic acid] were, in that order, below 100 nM and below 100 nM.
As to `CC(C)(C(=O)O)[C@H]1C[C@@H](OCCN2CCN(c3nc(N)nc4c3CCc3cc(OCc5ccc(Cl)cc5)ccc3-4)CC2)C1` [Example 172, cis-2-(3-(2-(4-(2-amino-8-((4-chlorobenzyl)oxy)-5,6-dihydrobenzo[h]quinazolin-4-yl)piperazin-1-yl)ethoxy)cyclobutyl)-2-methylpropanoic acid], the Ki in experiment [1] and in experiment [2] was below 100 nM each time.
Turning to `CC(C)(C(=O)O)[C@H]1C[C@H](OCCN2CCN(c3nc(N)nc4c3CCc3cc(OCc5ccc(Cl)cc5)ccc3-4)CC2)C1` [Example 173, trans-2-(3-(2-(4-(2-amino-8-((4-chlorobenzyl)oxy)-5,6-dihydrobenzo[h]quinazolin-4-yl)piperazin-1-yl)ethoxy)cyclobutyl)-2-methylpropanoic acid], the Ki in experiment [1] and in experiment [2] was below 100 nM in each case.
Take `CC(C)(C(=O)O)[C@H]1C[C@H](OCCN2CCN(c3nc(N)nc4c3CCc3cc(OCc5ccc(OC(F)(F)F)cc5)ccc3-4)CC2)C1` [Example 174, trans-2-(3-(2-(4-(2-amino-8-((4-(trifluoromethoxy)benzyl)oxy)-5,6-dihydrobenzo[h]quinazolin-4-yl)piperazin-1-yl)ethoxy)cyclobutyl)-2-methylpropanoic acid]: the Ki in experiment [1] and in experiment [2] was below 100 nM each time.
On to `N#CC1(C(=O)O)CCC(COCCN2CCN(c3nc(N)nc4c3CCc3cc(OCc5ccc(OC(F)(F)F)cc5)ccc3-4)CC2)CC1` (stereo not drawn) [Example 175, 4-((2-(4-(2-amino-8-((4-(trifluoromethoxy)benzyl)oxy)-5,6-dihydrobenzo[h]quinazolin-4-yl)piperazin-1-yl)ethoxy)methyl)-1-cyanocyclohexane-1-carboxylic acid], for which the Ki in experiment [1] and in experiment [2] was below 100 nM each time.
Consider `Nc1nc2c(c(N3CCN(CCOC4CCC(C(=O)O)OC4)CC3)n1)CCc1cc(OCc3ccc(OC(F)(F)F)cc3)ccc1-2` (stereo not drawn) [Example 179, 5-(2-(4-(2-amino-8-((4-(trifluoromethoxy)benzyl)oxy)-5,6-dihydrobenzo[h]quinazolin-4-yl)piperazin-1-yl)ethoxy)tetrahydro-2H-pyran-2-carboxylic acid], for which the Ki in experiment [1] and in experiment [2] was below 100 nM each time.
As to `Nc1nc2c(c(N3CCN(CCO[C@H]4C[C@@H]5[C@H](C4)[C@@]5(F)C(=O)O)CC3)n1)CCc1cc(OCc3ccc(OC(F)(F)F)cc3)ccc1-2` [Example 180, (1R,3r,5S,6s)-3-(2-(4-(2-amino-8-((4-(trifluoromethoxy)benzyl)oxy)-5,6-dihydrobenzo[h]quinazolin-4-yl)piperazin-1-yl)ethoxy)-6-fluorobicyclo[3.1.0]hexane-6-carboxylic acid], the Ki in experiment [1] and in experiment [2] was below 100 nM throughout.
With `Nc1nc2c(c(N3CCN(CCO[C@H]4CC[C@H]5[C@H](C(=O)O)[C@H]54)CC3)n1)CCc1cc(OCc3ccc(OC(F)(F)F)cc3)ccc1-2` [Example 181, (1S,25,5R,65)-2-(2-(4-(2-amino-8-((4-(trifluoromethoxy)benzyl)oxy)-5,6-dihydrobenzo[h]quinazolin-4-yl)piperazin-1-yl)ethoxy)bicyclo[3.1.0]hexane-6-carboxylic acid], the Ki in experiment [1] was 100 to 500 nM; in experiment [2], below 100 nM.
For `Nc1nc2c(c(N3CCN(CCOCc4ccc(C(=O)O)s4)CC3)n1)CCc1cc(OCc3ccc(OC(F)(F)F)cc3)ccc1-2` [Example 182, 5-((2-(4-(2-amino-8-((4-(trifluoromethoxy)benzyl)oxy)-5,6-dihydrobenzo[h]quinazolin-4-yl)piperazin-1-yl)ethoxy)methyl)thiophene-2-carboxylic acid], in that order: 100 to 500 nM and below 100 nM.
For `Nc1nc2c(c(N3CCN(CCOc4csc(C(=O)O)c4)CC3)n1)CCc1cc(OCc3ccc(OC(F)(F)F)cc3)ccc1-2` [Example 183, 4-(2-(4-(2-amino-8-((4-(trifluoromethoxy)benzyl)oxy)-5,6-dihydrobenzo[h]quinazolin-4-yl)piperazin-1-yl)ethoxy)thiophene-2-carboxylic acid], in that order: below 100 nM and below 100 nM.
Regarding `Nc1nc2c(c(N3CCN(CCOCC4CCCC(C(=O)O)C4)CC3)n1)CCc1cc(OCc3ccc(OC(F)(F)F)cc3)ccc1-2` (stereo not drawn) [Example 185, trans-3-((2-(4-(2-amino-8-((4-(trifluoromethoxy)benzyl)oxy)-5,6-dihydrobenzo[h]quinazolin-4-yl)piperazin-l-yl)ethoxy)methyl)cyclohexane-1-carboxylic acid dihydrochloride], the Ki in experiment [1] and in experiment [2] was below 100 nM each time.
